In patent US11117900B2 (Vertex Pharmaceuticals Incorporated, priority 2012, dated 2021):

Test system: HCT116 colorectal cancer cells
Test: Cisplatin sensitization assay (96 h MTS cell viability);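 further: compound concentration needed to lower the IC50 of Cisplatin alone by a set fold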
Assay type: cell-based
Conditions: Cisplatin sensitization value
Outline: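 The MTS viability read, after 1 h with reagent, followed 96 h of co-treatment at 37° C. in 5% CO2. Both compound and cisplatin were titrated 2-fold from a 10 μM top final concentration in a complete concentration matrix on HCT116 cells. Scores +++/++/+ reflect cisplatin sensitization value ranges.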

Compound | Cisplatin Sensitization Assay
Nc1nn2cc(F)cnc2c1C(=O)Nc1cnccc1N1CCC(C(=O)N2CCCC2)CC1 [I-G-83, 2-amino-6-fluoro-N-(4-(4-(pyrrolidine-1-carbonyl)piperidin-1-yl)pyridin-3-yl)pyrazolo[1,5-a]pyrimidine-3-carboxamide] | +++ (Compounds with a Cisplatin sensitization value of <0.02 μM are marked with “+++.”)
Nc1nn2cc(F)cnc2c1C(=O)Nc1cnccc1N1CCC(C(=O)N2CCC3(COC3)C2)CC1 [I-G-84, N-(4-(4-(2-oxa-6-azaspiro[3.4]octane-6-carbonyl)piperidin-1-yl)pyridin-3-yl)-2-amino-6-fluoropyrazolo[1,5-a]pyrimidine-3-carboxamide] | +++ (Compounds with a Cisplatin sensitization value of <0.02 μM are marked with “+++.”)
Nc1nn2cc(F)cnc2c1C(=O)Nc1cnccc1N1CCC(C(=O)N2CCOCC2)CC1 [I-G-85, 2-amino-6-fluoro-N-(4-(4-(morpholine-4-carbonyl)piperidin-1-yl)pyridin-3-yl)pyrazolo[1,5-a]pyrimidine-3-carboxamide] | +++ (Compounds with a Cisplatin sensitization value of <0.02 μM are marked with “+++.”)
CS(=O)(=O)C1CN(C(=O)C2CCN(c3c(F)cncc3NC(=O)c3c(N)nn4cc(F)cnc34)CC2)C1 [I-G-86, 2-amino-6-fluoro-N-(5-fluoro-4-(4-(3-(methylsulfonyl)azetidine-1-carbonyl)piperidin-1-yl)pyridin-3-yl)pyrazolo[1,5-a]pyrimidine-3-carboxamide] | +++ (Compounds with a Cisplatin sensitization value of <0.02 μM are marked with “+++.”)
Nc1nn2cc(Cl)cnc2c1C(=O)Nc1cncc(F)c1N1CCC(C(=O)N2CCN3CCC2CC3)CC1 [I-G-87, N-(4-(4-(1,4-diazabicyclo[3.2.2]nonane-4-carbonyl)piperidin-1-yl)-5-fluoropyridin-3-yl)-2-amino-6-chloropyrazolo[1,5-a]pyrimidine-3-carboxamide] | +++ (Compounds with a Cisplatin sensitization value of <0.02 μM are marked with “+++.”)
Nc1nn2cc(F)cnc2c1C(=O)Nc1cnccc1N1CCC(C(=O)N2CC3(COC3)C2)CC1 [I-G-88, N-(4-(4-(2-oxa-6-azaspiro[3.3]heptane-6-carbonyl)piperidin-1-yl)pyridin-3-yl)-2-amino-6-fluoropyrazolo[1,5-a]pyrimidine-3-carboxamide] | +++ (Compounds with a Cisplatin sensitization value of <0.02 μM are marked with “+++.”)
CS(=O)(=O)C1CN(C(=O)C2CCN(c3ccncc3NC(=O)c3c(N)nn4cc(F)cnc34)CC2)C1 [I-G-89, 2-amino-6-fluoro-N-(4-(4-(3-(methylsulfonyl)azetidine-1-carbonyl)piperidin-1-yl)pyridin-3-yl)pyrazolo[1,5-a]pyrimidine-3-carboxamide] | + (Compounds with a Cisplatin sensitization value >0.2 μM but <5 μM are marked with “+.”)
Nc1nn2cc(F)cnc2c1C(=O)Nc1cnccc1N1CCC(C(=O)N2CC3(CCO3)C2)CC1 [I-G-90, N-(4-(4-(1-oxa-6-azaspiro[3.3]heptane-6-carbonyl)piperidin-1-yl)pyridin-3-yl)-2-amino-6-fluoropyrazolo[1,5-a]pyrimidine-3-carboxamide] | +++ (Compounds with a Cisplatin sensitization value of <0.02 μM are marked with “+++.”)
CCOC1CN(C(=O)C2CCN(c3ccncc3NC(=O)c3c(N)nn4cc(F)cnc34)CC2)C1 [I-G-91, 2-amino-N-(4-(4-(3-ethoxyazetidine-1-carbonyl)piperidin-1-yl)pyridin-3-yl)-6-fluoropyrazolo[1,5-a]pyrimidine-3-carboxamide] | +++ (Compounds with a Cisplatin sensitization value of <0.02 μM are marked with “+++.”)
CC1(N2CCN(C(=O)C3CCN(c4c(F)cncc4NC(=O)c4c(N)nn5cc(F)cnc45)CC3)CC2)COC1 [I-G-92, 2-amino-6-fluoro-N-(5-fluoro-4-(4-(4-(3-methyloxetan-3-yl)piperazine-1-carbonyl)piperidin-1-yl)pyridin-3-yl)pyrazolo[1,5-a]pyrimidine-3-carboxamide] | +++ (Compounds with a Cisplatin sensitization value of <0.02 μM are marked with “+++.”)
CO[C@@H]1CCN(C(=O)C2CCN(c3ccncc3NC(=O)c3c(N)nn4cc(F)cnc34)CC2)C1 [I-G-93, (R)-2-amino-6-fluoro-N-(4-(4-(3-methoxypyrrolidine-1-carbonyl)piperidin-1-yl)pyridin-3-yl)pyrazolo[1,5-a]pyrimidine-3-carboxamide] | +++ (Compounds with a Cisplatin sensitization value of <0.02 μM are marked with “+++.”)
CO[C@H]1CCN(C(=O)C2CCN(c3ccncc3NC(=O)c3c(N)nn4cc(F)cnc34)CC2)C1 [I-G-94, (S)-2-amino-6-fluoro-N-(4-(4-(3-methoxypyrrolidine-1-carbonyl)piperidin-1-yl)pyridin-3-yl)pyrazolo[1,5-a]pyrimidine-3-carboxamide] | +++ (Compounds with a Cisplatin sensitization value of <0.02 μM are marked with “+++.”)
C[N+]1([O-])CCN(C(=O)C2CCN(c3c(F)cncc3NC(=O)c3c(N)nn4cc(F)cnc34)CC2)CC1 [I-G-95, 4-(1-(3-(2-amino-6-fluoropyrazolo[1,5-a]pyrimidine-3-carboxamido)-5-fluoropyridin-4-yl)piperidine-4-carbonyl)-1-methylpiperazine 1-oxide] | +++ (Compounds with a Cisplatin sensitization value of <0.02 μM are marked with “+++.”)
CN1CC(N2CCN(C(=O)C3CCN(c4c(F)cncc4NC(=O)c4c(N)nn5cc(F)cnc45)CC3)CC2)C1 [I-G-96, 2-amino-6-fluoro-N-(5-fluoro-4-(4-(4-(1-methylazetidin-3-yl)piperazine-1-carbonyl)piperidin-1-yl)pyridin-3-yl)pyrazolo[1,5-a]pyrimidine-3-carboxamide] | +++ (Compounds with a Cisplatin sensitization value of <0.02 μM are marked with “+++.”)
COCC1CN(C(=O)C2CCN(c3c(F)cncc3NC(=O)c3c(N)nn4cc(F)cnc34)CC2)C1 [I-G-98, 2-amino-6-fluoro-N-(5-fluoro-4-(4-(3-(methoxymethyl)azetidine-1-carbonyl)piperidin-1-yl)pyridin-3-yl)pyrazolo[1,5-a]pyrimidine-3-carboxamide] | +++ (Compounds with a Cisplatin sensitization value of <0.02 μM are marked with “+++.”)
CO[C@H]1CCN(C(=O)C2CCN(c3c(F)cncc3NC(=O)c3c(N)nn4cc(F)cnc34)CC2)C1 [I-G-99, (S)-2-amino-6-fluoro-N-(5-fluoro-4-(4-(3-methoxypyrrolidine-1-carbonyl)piperidin-1-yl)pyridin-3-yl)pyrazolo[1,5-a]pyrimidine-3-carboxamide] | +++ (Compounds with a Cisplatin sensitization value of <0.02 μM are marked with “+++.”)
Nc1nn2cc(F)cnc2c1C(=O)Nc1cnccc1N1CCN(C2COC2)CC1 [I-N-1, 2-amino-6-fluoro-N-(4-(4-(oxetan-3-yl)piperazin-1-yl)pyridin-3-yl)pyrazolo[1,5-a]pyrimidine-3-carboxamide] | ++ (Compounds with a Cisplatin sensitization value >0.02 μM but <0.2 μM are marked with “++.”)
N#CCc1cnc2c(C(=O)Nc3cnccc3N3CCC(N)CC3)c(N)nn2c1 [I-N-2, 2-amino-N-(4-(4-aminopiperidin-1-yl)pyridin-3-yl)-6-(cyanomethyl)pyrazolo[1,5-a]pyrimidine-3-carboxamide] | +++ (Compounds with a Cisplatin sensitization value of <0.02 μM are marked with “+++.”)
CN1CCN(c2ccncc2NC(=O)c2c(N)nn3cc(F)cnc23)CC1 [I-N-3, 2-amino-6-fluoro-N-(4-(4-methylpiperazin-1-yl)pyridin-3-yl)pyrazolo[1,5-a]pyrimidine-3-carboxamide] | +++ (Compounds with a Cisplatin sensitization value of <0.02 μM are marked with “+++.”)
CC(C)N1CCN(c2ccncc2NC(=O)c2c(N)nn3cc(F)cnc23)CC1 [I-N-4, 2-amino-6-fluoro-N-(4-(4-isopropylpiperazin-1-yl)pyridin-3-yl)pyrazolo[1,5-a]pyrimidine-3-carboxamide] | +++ (Compounds with a Cisplatin sensitization value of <0.02 μM are marked with “+++.”)
CN1CCN(c2c(NC(=O)c3c(N)nn4cc(F)cnc34)cncc2C2CC2)CC1 [I-N-5, 2-amino-N-(5-cyclopropyl-4-(4-methylpiperazin-1-yl)pyridin-3-yl)-6-fluoropyrazolo[1,5-a]pyrimidine-3-carboxamide] | ++ (Compounds with a Cisplatin sensitization value >0.02 μM but <0.2 μM are marked with “++.”)
Nc1nn2cc(F)cnc2c1C(=O)Nc1cnccc1-n1ccnc1 [I-N-7, N-(4-(1H-imidazol-1-yl)pyridin-3-yl)-2-amino-6-fluoropyrazolo[1,5-a]pyrimidine-3-carboxamide] | ++ (Compounds with a Cisplatin sensitization value >0.02 μM but <0.2 μM are marked with “++.”)
CNCCc1cnn(-c2ccncc2NC(=O)c2c(N)nn3cc(F)cnc23)c1 [I-N-8, 2-amino-6-fluoro-N-(4-(4-(2-(methylamino)ethyl)-1H-pyrazol-1-yl)pyridin-3-yl)pyrazolo[1,5-a]pyrimidine-3-carboxamide] | + (Compounds with a Cisplatin sensitization value >0.2 μM but <5 μM are marked with “+.”)
CN(C)CCc1cnn(-c2ccncc2NC(=O)c2c(N)nn3cc(F)cnc23)c1 [I-N-9, 2-amino-N-(4-(4-(2-(dimethylamino)ethyl)-1H-pyrazol-1-yl)pyridin-3-yl)-6-fluoropyrazolo[1,5-a]pyrimidine-3-carboxamide] | + (Compounds with a Cisplatin sensitization value >0.2 μM but <5 μM are marked with “+.”)
Nc1nn2cc(F)cnc2c1C(=O)Nc1cnccc1N1CCN([C@@H]2CCOC2)CC1 [I-N-10, (R)-2-amino-6-fluoro-N-(4-(4-(tetrahydrofuran-3-yl)piperazin-1-yl)pyridin-3-yl)pyrazolo[1,5-a]pyrimidine-3-carboxamide] | ++ (Compounds with a Cisplatin sensitization value >0.02 μM but <0.2 μM are marked with “++.”)
